Data reported in ChEMBL document CHEMBL1125353, “Structure-activity studies on benzhydrol-containing nipecotic acid and guvacine derivatives as potent, orally-active inhibitors of GABA uptake” (J Med Chem, 1992).

These compounds were tested on Rodentia sp. (assay: Potency inhibiting clonic seizures induced by GABA antagonist pentylene tetrazole(PTZ) in rodents following oral administration.). Conditions: not given.
Type: functional

Row | Compound | ED50
1 | Cl.O=C(O)C1=CCCN(CCOC(c2ccc(C(F)(F)F)cc2)c2ccc(C(F)(F)F)cc2)C1 | 0.4 mg/kg

These compounds were tested on Mus musculus (assay: Potency inhibiting tonic extensor seizures from low-intensity corneal electroshock in mice following peroral administration.). Conditions: not given.
Type: functional

Row | Compound | ED50
2 | Cl.O=C(O)C1=CCCN(CCOC(c2ccc(C(F)(F)F)cc2)c2ccc(C(F)(F)F)cc2)C1 | 1 mg/kg

Species on record: Rattus norvegicus
Assay: Potency inhibiting focal seizures in rat hippocampus preventing hippocampal after discharges
Type: functional
Conditions: not given

Row | Compound | ED50
3 | Cl.O=C(O)C1=CCCN(CCOC(c2ccc(C(F)(F)F)cc2)c2ccc(C(F)(F)F)cc2)C1 | 2.6 mg/kg

The compounds below were run on Mus musculus (assay: Potency of the inhibiting ataxia in mice following peroral administration.). Conditions: not given.
Type: functional

Row | Compound | ED50
4 | Cl.O=C(O)C1=CCCN(CCOC(c2ccc(C(F)(F)F)cc2)c2ccc(C(F)(F)F)cc2)C1 | 64 mg/kg

These compounds were tested on Rattus norvegicus (assay: Anticonvulsant activity against kindled rats was determined after ip administration). Conditions: not given.
Type: functional

Row | Compound | ED50
5 | Cl.O=C(O)C1=CCCN(CCOC(c2ccc(Cl)cc2)c2ccc(Cl)cc2)C1 | 14 mg/kg
6 | Cl.O=C(O)C1CCCN(CCOC(c2ccc(Cl)cc2)c2ccc(Cl)cc2)C1 (stereo not given) | 25 mg/kg

The compounds below were run against Sodium channel alpha subunits; brain (Types I, II, III) (Rattus norvegicus, UniProt P04775+P04774+P08104) (assay: Inhibition of veratridine-stimulated [14C]- guanidine influx into rat cortical slice). Conditions: not given.
Type: functional

Row | Compound | IC50
7 | Cl.O=C(O)C1=CCCN(CCOC(c2ccc(C(F)(F)F)cc2)c2ccc(C(F)(F)F)cc2)C1 | 10 µM

Species on record: Rattus norvegicus
Assay: In vitro inhibition of [3H]GABA uptake in rat Hippocampal slices.
Type: functional, organism-based
Conditions: not given

Row | Compound | IC50
8 | O=C(O)[C@H]1CCCN(CCOC(c2ccc(Cl)cc2)c2ccc(Cl)cc2)C1 (stereo in doubt; 36) | 14 µM
9 | O=C(O)[C@H]1CCCN(CCOC(c2ccc(Cl)cc2)c2ccc(Cl)cc2)C1 (stereo in doubt; 37) | 0.18 µM

Same assay, conditions: Rattus norvegicus, 3 h

Row | Compound | IC50
10 | Cl.O=C(O)C1=CCCN(CCOC(c2ccc(C(F)(F)F)cc2)c2ccc(C(F)(F)F)cc2)C1 | 0.34 µM
11 | O=C(O)C1CCCN(CCOC(c2ccc(OC(F)(F)F)cc2)c2ccc(OC(F)(F)F)cc2)C1 (stereo not given) | 0.92 µM
12 | O=C(O)C1CCCN(CCC2CC2(c2ccccc2)c2ccccc2)C1 (stereo not given) | > 50 µM
13 | O=C(O)C1CCCN(CCOC(c2ccccc2)c2ccc(Cl)cc2)C1 (stereo not given) | 20 µM
14 | O=C(O)C1CCN(CCOC(c2ccc(Cl)cc2)c2ccc(Cl)cc2)C1 (stereo not given) | > 50 µM
15 | O=C(O)C1CCCN(CCSC(c2ccccc2)c2ccccc2)C1 (stereo not given) | 60 µM
16 | CN(C)C(=O)C1CCCN(CCOC(c2ccc(Cl)cc2)c2ccc(Cl)cc2)C1 (stereo not given) | 25 µM
17 | O=C(O)CC1CCN(CCOC(c2ccc(Cl)cc2)c2ccc(Cl)cc2)C1 (stereo not given) | 2.7 µM
18 | O=C1CCCN1CCOC(c1ccc(Cl)cc1)c1ccc(Cl)cc1 | 26 µM
19 | OCC1CCCN(CCOC(c2ccc(Cl)cc2)c2ccc(Cl)cc2)C1 (stereo not given) | 47 µM
20 | O=C(O)C1CCCN(CCCOC(c2ccccc2)(c2ccccc2)c2ccccc2)C1 (stereo not given) | 7.9 µM
21 | O=C(O)C1CCN(CCOC(c2ccc(Cl)cc2)c2ccc(Cl)cc2)CC1 | > 50 µM
22 | NC(=O)C1CCCN(CCOC(c2ccc(Cl)cc2)c2ccc(Cl)cc2)C1 (stereo not given) | 35 µM
23 | O=C(O)C1CCCN(CCOC2c3ccc(Cl)cc3CCc3cc(Cl)ccc32)C1 (stereo not given) | 1.6 µM
24 | CCCC(CCC)C(=O)O [VALPROIC ACID] | > 50 µM
25 | CC(=O)C1CCCN(CCOC(c2ccc(Cl)cc2)c2ccc(Cl)cc2)C1 (stereo not given) | 22 µM
26 | O=C(O)C1CCCN(CC(=O)C(c2ccccc2)c2ccccc2)C1 (stereo not given) | > 50 µM
27 | Cl.O=C(O)C1=CCCN(CCOC(c2ccc(Cl)cc2)c2ccc(Cl)cc2)C1 | 0.41 µM
28 | O=C(O)C1CCCN(CCOC(c2ccc(Cl)cc2)c2ccco2)C1 (stereo not given) | 8.7 µM
29 | O=C(O)C1CCCN(CCOC(c2ccc(Cl)cc2)c2ccc(Cl)c(C(F)(F)F)c2)C1 (stereo not given) | 1.4 µM
30 | O=C(O)C1CCCN(CCOC(c2ccc(Cl)c(Cl)c2)c2ccc(Cl)c(Cl)c2)C1 (stereo not given) | 2.5 µM
31 | Clc1ccc(C(OCCN2CCCCC2)c2ccc(Cl)cc2)cc1 | 21 µM
32 | O=C(O)C1CCCN(CCOC(c2ccc(Cl)c(Cl)c2)C2CCCCC2)C1 (stereo not given) | 1.1 µM
33 | O=C(O)C1CCCN(CCC=C(c2ccccc2)c2ccccc2)C1 (stereo not given) | 10 µM
34 | O=C(O)C1CCCN(CCCOC(c2ccccc2)c2ccccc2)C1 (stereo not given) | 12 µM

Row | Compound | IC50
35 | N#CC1CCCN(CCOC(c2ccc(Cl)cc2)c2ccc(Cl)cc2)C1 (stereo not given) | > 50 µM
36 | O=C(O)C1CCCN(CCOC(c2ccc(C(F)(F)F)cc2)c2ccc(C(F)(F)F)cc2)C1 (stereo not given) | 0.71 µM
37 | O=C(O)[C@@H]1CCCNC1 [(R)-NIPECOTIC ACID] | 5.2 µM
38 | Cc1cc(Cl)ccc1C(OCCN1CCCC(C(=O)O)C1)c1ccc(Cl)cc1C (stereo not given) | 3.2 µM
39 | Cl.O=C(O)C1CCCN(CCOC(c2ccc(Cl)cc2)c2ccc(Cl)cc2)C1 (stereo not given) | 0.41 µM
40 | O=C(O)[C@H]1CN(CCOC(c2ccc(Cl)cc2)c2ccc(Cl)cc2)CC[C@@H]1O | 1.2 µM
41 | NC(=O)N1c2ccccc2C=Cc2ccccc21 [CARBAMAZEPINE] | > 50 µM
42 | O=C(CCCN1CCCC(C(=O)O)C1)c1ccc(F)cc1 (stereo not given) | > 50 µM
43 | O=C(O)[C@H]1CCCNC1 [(S)-NIPECOTIC ACID] | 55 µM
44 | O=C(O)C1CCCN(CCOC(c2ccc(F)cc2)c2ccc(F)cc2)C1 (stereo not given) | 7.8 µM
45 | Cc1ccc(C(OCCN2CCCC(C(=O)O)C2)c2ccc(C)cc2)cc1 (stereo not given) | 5.7 µM
46 | O=C(O)C1=CCCNC1 [GUVACINE] | 7.3 µM
47 | O=C(O)C1CCCN(CCOC(c2ccccc2)c2ccc(Cl)c(Cl)c2)C1 (stereo not given) | 1.2 µM
48 | COC(=O)C1CCCN(CCOC(c2ccc(Cl)cc2)c2ccc(Cl)cc2)C1 (stereo not given) | 0.7 µM
49 | O=C(O)C1CCCN(CCC(Cc2ccccc2)c2ccccc2)C1 (stereo not given) | 50 µM
50 | CCOC(=O)C1CCCN(CCOC(c2ccc(Cl)cc2)c2ccc(Cl)cc2)C1 (stereo not given) | 11 µM
51 | CNC(=O)C1CCCN(CCOC(c2ccc(Cl)cc2)c2ccc(Cl)cc2)C1 (stereo not given) | 40 µM
52 | COC(=O)C1=CCCN(CCOC(c2ccc(C(F)(F)F)cc2)c2ccc(C(F)(F)F)cc2)C1 | 40 µM
53 | O=C(O)[C@H]1CN(CCOC(c2ccc(Cl)cc2)c2ccc(Cl)cc2)CC[C@H]1O | 1.5 µM
54 | O=C(O)C1CCCN(CCOC(c2ccccc2)c2ccccc2)C1 (stereo not given) | 3.4 µM
55 | O=C(O)C1CCCN(CCOC(c2ccc(Cl)cc2)c2cccs2)C1 (stereo not given) | 3.6 µM
56 | O=C(O)C1CCCN(CCOC2c3ccccc3C=Cc3ccccc32)C1 (stereo not given) | 2.5 µM
57 | O=C(O)C1CCCN(CCc2oc3ccccc3c2-c2ccccc2)C1 (stereo not given) | 22 µM
58 | O=C1NC(=O)C(c2ccccc2)(c2ccccc2)N1 [PHENYTOIN] | > 50 µM

Each compound was assayed on Rodentia sp. (assay: Inhibitory potency against threshold clonic seizures induced by ip picrotoxin in rodents). Conditions: not given.
Type: functional

Row | Compound | Ataxia
59 | Cl.O=C(O)C1=CCCN(CCOC(c2ccc(C(F)(F)F)cc2)c2ccc(C(F)(F)F)cc2)C1 | 1.7%

Species on record: Rattus norvegicus
Assay: In vitro Inhibitory activity against GABA uptake
Type: functional
Conditions: not given

Row | IC50 | Compound
60 | 5.2 µM | O=C(O)[C@@H]1CCCNC1 [(R)-NIPECOTIC ACID]
